According to patent publication US20240294522A1 (Lead Discovery Center GmbH, priority 2021, published 2024):

How the values were obtained:
GRK5 = target: T1, GRK5 (Homo sapiens, UniProt P34947); experiment: Lance Kinase Activity Assay, GRK5; conditions: biochemical Lance kinase activity assay; class symbols A-F; read-out: GRK5 LANCE Assay (IC-50)
T1 construct: purchased Thermo Scientific
Method in brief: (§1)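 IC50s from sigmoidal dose-response over 0.0025-10 μM compound, with phosphorylated ULight substrate detected by Eu anti-phospho antibody FRET after EDTA quench.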

GRK2 = target: T2, GRK2 (Homo sapiens, UniProt P25098); experiment: Lance Kinase Activity Assay, GRK2; conditions: biochemical Lance kinase activity assay; class symbols A-F; read-out: GRK2 LANCE Assay (IC-50)
T2 construct: purchased Thermo Scientific
T2 sequence (P25098 1-689): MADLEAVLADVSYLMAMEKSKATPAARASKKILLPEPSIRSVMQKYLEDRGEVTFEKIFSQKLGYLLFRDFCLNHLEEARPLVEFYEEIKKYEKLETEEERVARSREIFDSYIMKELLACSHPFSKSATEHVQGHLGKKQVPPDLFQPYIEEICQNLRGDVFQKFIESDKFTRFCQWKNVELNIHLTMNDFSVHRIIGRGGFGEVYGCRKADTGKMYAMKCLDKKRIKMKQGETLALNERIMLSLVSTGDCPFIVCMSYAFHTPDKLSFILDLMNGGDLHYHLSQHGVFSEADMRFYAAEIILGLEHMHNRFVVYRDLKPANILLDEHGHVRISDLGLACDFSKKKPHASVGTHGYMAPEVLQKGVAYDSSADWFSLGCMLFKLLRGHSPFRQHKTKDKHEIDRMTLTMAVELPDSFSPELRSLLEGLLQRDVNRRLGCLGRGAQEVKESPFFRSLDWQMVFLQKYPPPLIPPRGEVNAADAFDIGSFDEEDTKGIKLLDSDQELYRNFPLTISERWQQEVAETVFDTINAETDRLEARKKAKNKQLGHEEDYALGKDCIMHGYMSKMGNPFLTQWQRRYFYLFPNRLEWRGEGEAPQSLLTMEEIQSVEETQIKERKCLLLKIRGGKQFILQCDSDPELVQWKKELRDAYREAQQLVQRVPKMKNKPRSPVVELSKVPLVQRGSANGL
Method in brief: as §1

T1 sequence (P34947 whole entry): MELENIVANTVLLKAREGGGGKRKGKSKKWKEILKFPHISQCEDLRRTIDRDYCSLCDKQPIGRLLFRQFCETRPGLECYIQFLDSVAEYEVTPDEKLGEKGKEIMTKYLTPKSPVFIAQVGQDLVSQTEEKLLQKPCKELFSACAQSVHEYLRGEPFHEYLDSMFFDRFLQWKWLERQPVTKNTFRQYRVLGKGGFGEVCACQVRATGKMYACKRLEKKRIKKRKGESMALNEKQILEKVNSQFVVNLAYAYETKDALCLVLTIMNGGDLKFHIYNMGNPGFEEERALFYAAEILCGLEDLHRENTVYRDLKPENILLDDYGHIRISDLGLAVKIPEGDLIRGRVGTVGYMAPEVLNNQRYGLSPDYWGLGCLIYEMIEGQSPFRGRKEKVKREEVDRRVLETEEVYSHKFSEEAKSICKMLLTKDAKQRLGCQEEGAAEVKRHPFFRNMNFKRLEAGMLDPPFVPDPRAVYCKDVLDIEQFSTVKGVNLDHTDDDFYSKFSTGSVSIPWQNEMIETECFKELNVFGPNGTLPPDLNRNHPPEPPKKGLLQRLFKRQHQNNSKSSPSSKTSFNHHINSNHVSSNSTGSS

SMILES	IC50 (GRK5) [µM]	IC50 (GRK2) [µM]
COc1ccc([C@@H](C)NC(=O)/C=C/c2c[nH]c3ncc(-c4cccc(S(=O)(=O)C5CC5)c4)cc23)cc1OC [Example 216, (R,E)-3-(5-(3-(cyclopropylsulfonyl)phenyl)-1H-pyrrolo[2,3-b]pyridin-3-yl)-N-(1-(3,4-dimethoxyphenyl)ethyl)acrylamide]	≤ 0.05	1 to 10
COc1ccc([C@@H](C)NC(=O)/C=C/c2c[nH]c3ncc(-c4cccc(CS(C)(=O)=O)c4)cc23)cc1OC [Example 217, (R,E)-N-(1-(3,4-dimethoxyphenyl)ethyl)-3-(5-(3-((methylsulfonyl)methyl)phenyl)-1H-pyrrolo[2,3-b]pyridin-3-yl)acrylamide]	≤ 0.05	1 to 10
COc1ccc([C@@H](C)NC(=O)/C=C/c2c[nH]c3ncc(-c4cncc(S(C)(=O)=O)c4)cc23)cc1OC [Example 218, (R,E)-N-(1-(3,4-dimethoxyphenyl)ethyl)-3-(5-(5-(methylsulfonyl)pyridin-3-yl)-1H-pyrrolo[2,3-b]pyridin-3-yl)acrylamide]	≤ 0.05	> 10
COc1ccc([C@@H](C)NC(=O)/C=C/c2c[nH]c3ncc(-c4ccc(F)c(S(C)(=O)=O)c4)cc23)cc1OC [Example 220, (R,E)-N-(1-(3,4-dimethoxyphenyl)ethyl)-3-(5-(4-fluoro-3-(methylsulfonyl)phenyl)-1H-pyrrolo[2,3-b]pyridin-3-yl)acrylamide]	≤ 0.05	1 to 10
COc1ccc([C@@H](C)NC(=O)/C=C/c2c[nH]c3ncc(-c4cccc(C#N)c4)cc23)cc1OC [Example 221, (R,E)-3-(5-(3-cyanophenyl)-1H-pyrrolo[2,3-b]pyridin-3-yl)-N-(1-(3,4-dimethoxyphenyl)ethyl)acrylamide]	≤ 0.05	> 10
COc1ccc([C@@H](C)NC(=O)/C=C/c2c[nH]c3ncc(-c4ccccc4S(C)(=O)=O)cc23)cc1OC [Example 222, (R,E)-N-(1-(3,4-dimethoxyphenyl)ethyl)-3-(5-(2-(methylsulfonyl)phenyl)-1H-pyrrolo[2,3-b]pyridin-3-yl)acrylamide]	1 to 10	> 10
COc1ccc([C@@H](C)NC(=O)/C=C/c2c[nH]c3nccc(-c4ccc(CN(C)C)cc4)c23)cc1OC [Example 223, (R,E)-N-(1-(3,4-dimethoxyphenyl)ethyl)-3-(4-(4-((dimethylamino)methyl)phenyl)-1H-pyrrolo[2,3-b]pyridin-3-yl)acrylamide]	0.1 to 0.5	> 10
COc1ccc([C@@H](C)NC(=O)/C=C/c2c[nH]c3nccc(-c4cccc(CN(C)C)c4)c23)cc1OC [Example 224, (R,E)-N-(1-(3,4-dimethoxyphenyl)ethyl)-3-(4-(3-((dimethylamino)methyl)phenyl)-1H-pyrrolo[2,3-b]pyridin-3-yl)acrylamide]	0.1 to 0.5	> 10
COc1ccc([C@@H](C)NC(=O)/C=C/c2c[nH]c3nccc(-c4ccccc4)c23)cc1OC [Example 225, (R,E)-N-(1-(3,4-dimethoxyphenyl)ethyl)-3-(4-phenyl-1H-pyrrolo[2,3-b]pyridin-3-yl)acrylamide]	0.05 to 0.1	1 to 10
COc1ccc([C@@H](C)NC(=O)/C=C/c2c[nH]c3nccc(-c4ccc(NS(C)(=O)=O)cc4)c23)cc1OC [Example 226, (R,E)-N-(1-(3,4-dimethoxyphenyl)ethyl)-3-(4-(4-(methylsulfonamido)phenyl)-1H-pyrrolo[2,3-b]pyridin-3-yl)acrylamide]	0.05 to 0.1	1 to 10
COc1ccc([C@@H](C)NC(=O)/C=C/c2c[nH]c3nccc(-c4cccc(S(=O)(=O)N(C)C)c4)c23)cc1OC [Example 227, (R,E)-N-(1-(3,4-dimethoxyphenyl)ethyl)-3-(4-(3-(N,N-dimethylsulfamoyl)phenyl)-1H-pyrrolo[2,3-b]pyridin-3-yl)acrylamide]	0.1 to 0.5	1 to 10
COc1ccc([C@@H](C)NC(=O)/C=C/c2c[nH]c3nccc(-c4cccc(N(C)C)c4)c23)cc1OC [Example 228, (R,E)-N-(1-(3,4-dimethoxyphenyl)ethyl)-3-(4-(3-(dimethylamino)phenyl)-1H-pyrrolo[2,3-b]pyridin-3-yl)acrylamide]	0.05 to 0.1	1 to 10
COc1ccc([C@@H](C)NC(=O)/C=C/c2c[nH]c3nccc(-c4ccc(F)cc4OC)c23)cc1OC [Example 229, (R,E)-N-(1-(3,4-dimethoxyphenyl)ethyl)-3-(4-(4-fluoro-2-methoxyphenyl)-1H-pyrrolo[2,3-b]pyridin-3-yl)acrylamide]	1 to 10	> 10
COc1ccc([C@@H](C)NC(=O)/C=C/c2c[nH]c3nccc(-c4ccc(OCCN(C)C)cc4)c23)cc1OC [Example 230, (R,E)-N-(1-(3,4-dimethoxyphenyl)ethyl)-3-(4-(4-(2-(dimethylamino)ethoxy)phenyl)-1H-pyrrolo[2,3-b]pyridin-3-yl)acrylamide]	≤ 0.05	1 to 10
COc1ccc([C@@H](C)NC(=O)/C=C/c2c[nH]c3nccc(-c4cccc(NS(C)(=O)=O)c4)c23)cc1OC [Example 231, (R,E)-N-(1-(3,4-dimethoxyphenyl)ethyl)-3-(4-(3-(methylsulfonamido)phenyl)-1H-pyrrolo[2,3-b]pyridin-3-yl)acrylamide]	0.1 to 0.5	> 10
COc1ccc([C@@H](C)NC(=O)/C=C/c2c[nH]c3nccc(-c4ccc(CN5CCOCC5)cc4)c23)cc1OC [Example 232, (R,E)-N-(1-(3,4-dimethoxyphenyl)ethyl)-3-(4-(4-(morpholinomethyl)phenyl)-1H-pyrrolo[2,3-b]pyridin-3-yl)acrylamide]	0.05 to 0.1	1 to 10
COc1ccc([C@@H](C)NC(=O)/C=C/c2c[nH]c3nccc(-c4cccc(C(N)=O)c4)c23)cc1OC [Example 233, (R,E)-3-(3-(3-((1-(3,4-dimethoxyphenyl)ethyl)amino)-3-oxoprop-1-en-1-yl)-1H-pyrrolo[2,3-b]pyridin-4-yl)benzamide]	0.05 to 0.1	1 to 10
COc1ccc([C@@H](C)NC(=O)/C=C/c2c[nH]c3nccc(-c4ccc(CN5CCN(C)CC5)cc4)c23)cc1OC [Example 234, (R,E)-N-(1-(3,4-dimethoxyphenyl)ethyl)-3-(4-(4-((4-methylpiperazin-1-yl)methyl)phenyl)-1H-pyrrolo[2,3-b]pyridin-3-yl)acrylamide]	0.1 to 0.5	1 to 10
COc1ccc([C@@H](C)NC(=O)/C=C/c2c[nH]c3nccc(-c4ccc(N5CCN(C(C)=O)CC5)cc4)c23)cc1OC [Example 235, (R,E)-3-(4-(4-(4-acetylpiperazin-1-yl)phenyl)-1H-pyrrolo[2,3-b]pyridin-3-yl)-N-(1-(3,4-dimethoxyphenyl)ethyl)acrylamide]	0.05 to 0.1	> 10
COc1ccc([C@@H](C)NC(=O)/C=C/c2c[nH]c3nccc(-c4ccc(C(N)=O)cc4)c23)cc1OC [Example 236, (R,E)-4-(3-(3-((1-(3,4-dimethoxyphenyl)ethyl)amino)-3-oxoprop-1-en-1-yl)-1H-pyrrolo[2,3-b]pyridin-4-yl)benzamide]	0.1 to 0.5	> 10
COc1ccc([C@@H](C)NC(=O)/C=C/c2c[nH]c3nccc(-c4cnn(C)c4C)c23)cc1OC [Example 237, (R,E)-N-(1-(3,4-dimethoxyphenyl)ethyl)-3-(4-(1,5-dimethyl-1H-pyrazol-4-yl)-1H-pyrrolo[2,3-b]pyridin-3-yl)acrylamide]	0.1 to 0.5	> 10
COc1ccc([C@@H](C)NC(=O)/C=C/c2c[nH]c3nccc(-c4cnn(C)c4)c23)cc1OC [Example 238, (R,E)-N-(1-(3,4-dimethoxyphenyl)ethyl)-3-(4-(1-methyl-1H-pyrazol-4-yl)-1H-pyrrolo[2,3-b]pyridin-3-yl)acrylamide]	0.1 to 0.5	> 10
CC[S+]([O-])c1cccc(-c2ccnc3[nH]cc(/C=C/C(=O)N[C@H](C)c4ccc(OC)c(OC)c4)c23)c1 (stereo partly drawn) [Example 239, (E)-N-((R)-1-(3,4-dimethoxyphenyl)ethyl)-3-(4-(3-(ethylsulfinyl)phenyl)-1H-pyrrolo[2,3-b]pyridin-3-yl)acrylamide]	0.5 to 1	> 10
COc1ccc([C@@H](C)NC(=O)/C=C/c2c[nH]c3nccc(-c4ccc(C5CCN(C)CC5)cc4)c23)cc1OC [Example 240, (R,E)-N-(1-(3,4-dimethoxyphenyl)ethyl)-3-(4-(4-(1-methylpiperidin-4-yl)phenyl)-1H-pyrrolo[2,3-b]pyridin-3-yl)acrylamide]	0.05 to 0.1	1 to 10
COc1ccc([C@@H](C)NC(=O)/C=C/c2c[nH]c3nccc(-c4ccc(OCCCN(C)C)cc4)c23)cc1OC [Example 241, (R,E)-N-(1-(3,4-dimethoxyphenyl)ethyl)-3-(4-(4-(3-(dimethylamino)propoxy)phenyl)-1H-pyrrolo[2,3-b]pyridin-3-yl)acrylamide]	0.05 to 0.1	1 to 10
